Values quoted from earlier work, collected in US20210077540A1, “BIOACTIVE GREEN-LIPPED MUSSEL EXTRACTS AND USES THEREOF” (SANFORD LIMITED, priority 2018, published 2021).

Experiments:
[1] = supplementation, women with gestational hypertension incl. pre-eclampsia
[2] = oral supplementation, meta-analysis of randomized, double-blind, placebo-controlled trials

N=C(N)NCCC[C@H](N)C(=O)O [L-arginine]
effect on diastolic blood pressure (in words) [1]: reduces diastolic blood pressure | effect on length of pregnancy (in words) [1]: lengthens pregnancy | reduction of diastolic blood pressure, pooled estimate [2]: 2.7 mmHg | reduction of systolic blood pressure, pooled estimate [2]: 5.4 mmHg
